Reference: patent publication US20140349943A1, “TOPICAL FORMULATIONS OF CHEMERIN C15 PEPTIDES FOR THE TREATMENT OF DERMATOLOGICAL CONDITIONS” (priority 2011, published 2014)
Peptide text beside a SMILES is read from it.

Legend:
[1] = test system: psoriasis patients; details: cited from earlier work
[2] = test system: IFNγ/LPS stimulated human macrophages; assay: Cytokine secretion by IFNγ/LPS stimulated human macrophages (Luminex); assay type: cell-based
From the text: In this example, the ability of human chemerin C15 to inhibit secretion of cytokines from activated human macrophages was examined. For this experiment, the activity of the human chemerin C15 peptide […] (SEQ ID NO: 1) was compared to that of the human chemerin C17 peptide […] (SEQ ID NO: 25). The C15 and C17 peptides were synthesized by solid phase synthesis using BOP coupling of FMOC protected amino acids with final cleavage from the resin with TFA. Peptides were purified by reverse phase C18 chromatography using a water/acetonitrile gradient.
Human macrophages were derived from human CD14+ monocytes obtained from 3 donors. On Day 1, the isolated monocytes were thawed and seeded in triplicate for each group in 1 ml RPMI 1640 GlutaMAX™ media (supplemented with 10% FBS, 100 U/ml penicillin, 100 μg/ml streptomycin, 0.05 μM mercaptoethanol, 1% NEAA and 1% sodium pyruvate) per well of a 24 well cell culture dish at a cell concentration of 5×10^5 cells/ml. M-CSF was added to each well to give a final concentration of 25 ng/ml. Cells were grown for 7 days at 37° C. with 5% CO2 to differentiate the cells into macrophages. Media and M-CSF were replaced after 4 days.
Following differentiation, the media containing M-CSF was removed. The cells were washed and vehicle control, dexamethasone, C15 or C17 were added to the appropriate wells. The test peptides were dissolved in 50% DMSO/water prior to addition. C-15 (MW 1669; 16.7 mg/ml) was added to a final concentration of […] and C17 (MW 1904; 19.0 mg/ml) was added to a final concentration of 1 μM. Dexamethasone was added to a final concentration of 1 μM. Following addition to the wells, the plates were incubated at 37° C. with 5% CO2 for 1 hour. An equal volume of complete media was added to the non-treated wells. Control or test treatments were maintained at the correct concentration throughout the assay.
IFNγ (final concentration 20 ng/ml) was then added to the appropriate wells. Following IFNγ addition, the plates were incubated at 37° C. with 5% CO2 for 4 hours. The concentration of vehicle control, test treatments or dexamethasone was maintained during IFNγ stimulation. LPS (final concentration 10 ng/ml) was then added to the appropriate wells. Following LPS addition, the plates were incubated at 37° C. with 5% CO2 for 15 hours. After 6 hours, ˜60 μl of culture supernatant was removed from all wells and stored at −80° C. for analysis. The concentration of vehicle control, test treatments or dexamethasone was maintained during LPS stimulation.
At 15 hours post LPS stimulation, the remaining cell culture supernatant was harvested and stored at −80° C. until assayed. The concentration of vehicle control, test treatments or dexamethasone was maintained until culture termination.
Cell culture supernatants taken at 6 hours and 15 hours post LPS addition were assayed for the production of RANTES, TNFα, IL-1β, IL-6, IL-10, IL-12p40 (subunit common to IL-12 and IL-23) and IL-15 (negative control) using Luminex® technology (Procarta human cytokine kit; Panomics) following the manufacturer's instructions.
In this experiment, the importance of the FYFP motif (SEQ ID NO: 2) in the human chemerin C15 peptide on anti-inflammatory activity was examined. The ability of the human chemerin C15 peptide […] (SEQ ID NO: 1) was compared to that of a substituted chemerin C15 peptide having the amino acid sequence […] (SEQ ID NO: 27), where the second phenylalanine in the peptide is modified to alanine. The experiment was performed as described in Example 1. 0.1 pM 0.5 pM and 1 pM concentrations of the C15 and C15 mutant peptides were tested. Cytokine expression was determined as described in Example 1.

[3] = biological target: T1, ChemR23 (Homo sapiens, UniProt Q99788); assay: Hit Hunter cAMP Hunter assay, human ChemR23; assay type: cell-based
T1 sequence (Q99788 1-373): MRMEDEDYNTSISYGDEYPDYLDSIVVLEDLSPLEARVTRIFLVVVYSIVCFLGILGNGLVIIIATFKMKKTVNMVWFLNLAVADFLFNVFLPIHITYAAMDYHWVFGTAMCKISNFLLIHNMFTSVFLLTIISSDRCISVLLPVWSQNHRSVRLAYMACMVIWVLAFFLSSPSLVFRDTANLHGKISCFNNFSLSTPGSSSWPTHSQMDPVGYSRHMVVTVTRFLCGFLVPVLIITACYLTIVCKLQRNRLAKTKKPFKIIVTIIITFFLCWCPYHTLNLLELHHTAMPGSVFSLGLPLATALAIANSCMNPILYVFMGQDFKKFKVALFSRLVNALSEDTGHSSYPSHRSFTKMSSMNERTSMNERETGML
Protocol: (§1) The DiscoveRx PathHunter™ eXpress GPCR activity assay was employed to test agonist and antagonist activities of the chemerin peptides against the GPCRs ChemR23 and GPR1. Two assay formats were tested, the PathHunter β-Arrestin assay and the Hit Hunter cAMP Hunter assay.
The protocol used was a standard protocol employed by DiscoveRx PathHunter™ profiling service. […] Once it was established that the cells were healthy and growing normally, cells were passaged from flasks using cell dissociation reagent buffer and seeded into white walled clear bottom 384-well microplates for compound profiling. For profiling, cells were seeded at a density of 10000 cells per well in a total volume of 20 μL and were allowed to adhere and recover overnight prior to compound addition. Cells were treated the following day using the protocols shown below. cAMP modulation was determined using the DiscoveRx HitHunter cAMP XS+ assay.
For profiling compound in agonist mode, the cells were incubated in the presence of compound at 37° C. for 30 minutes.
EC80 agonist concentration was determined directly from agonist dose curve.
Microplates were read following signal generation with a PerkinElmer Envision™ instrument for chemiluminescent signal detection.
Dose curves in the presence and absence of compound were plotted using GraphPad Prism or Activity Base.

[4] = biological target: T2, ChemR23 (CMKLR1) (Homo sapiens, UniProt Q99788); assay: PathHunter β-Arrestin assay, ChemR23 (CMKLR1), agonist and antagonist mode; assay type: cell-based
T2 construct: host or cells: CHO
T2 sequence (Q99788 1-373): T1 sequence (Q99788 1-373)
Protocol: as §1
(§2) The PathHunter β-Arrestin assay monitors the activation of a GPCR in a homogenous, non-imaging assay format using a technology developed by DiscoveRx called complementation, which utilizes an enzyme fragment complementation (EFC) assay with β-galactosidase (β-Gal) as the functional reporter. The enzyme is split into two complementary portions expressed as fusion proteins in the cell. The Enzyme Acceptor (EA) is fused to β-Arrestin and the ProLink donor peptide is fused to the GPCR of interest. Upon GPCR stimulation, β-Arrestin is recruited to the receptor for desensitization, bringing the two fragments of β-Gal together and allowing complementation to occur.
(§3) The assay involves CHO cell lines that express 1) a GPCR of interest (e.g. ChemR23 or GPR1) that has a fragment of the βgal enzyme fused to the C-terminus of the receptor and 2) a β-arrestin fused to the main β-gal enzyme. When the agonist binds to the receptor, β-arrestin is recruited to the receptor and the β-gal enzyme is complemented by the fragment from the GPCR thus forming a functional β-gal enzyme. A substrate is then added and luminescence is generated to detect β-arrestin recruitment.
(§4) The protocol used was a standard protocol employed by DiscoveRx PathHunter™ profiling service. […] Once it was established that the cells were healthy and growing normally, cells were passaged from flasks using cell dissociation reagent and seeded into white walled clear bottom 384-well microplates for compound profiling. For profiling, cells were seeded at a density of 5000 cells per well in a total volume of 20 μL and were allowed to adhere and recover overnight prior to compound addition.
(§5) For the agonist assay, intermediate dilution of compound stocks were generated such that 5 μL of 5× compound could be added to each well with a final DMSO concentration of 1% of total volume. For profiling compound in agonist mode, the cells were incubated in the presence of compound at 37° C. for 90 minutes.
(§6) For the antagonist assay, agonist dose curves were performed the morning of profiling to determine the EC80 value for the following antagonist testing with compounds. 5 μL of 5× agonist (i.e. chemerin) was added to each well with an equal concentration of vehicle present. EC80 agonist concentration was determined directly from agonist dose curve. For antagonist determination, cells were preincubated with antagonist followed by agonist challenge at the EC80 concentration: 4. 5 μL of 5× compound added to cells and incubated at 37° C. for 30 minutes. 5. 5 μL of 6× EC80 agonist added to cells and incubated at 37° C. for 90 minutes.
(§7) Microplates were read following signal generation with a PerkinElmer Envision™ instrument for chemiluminescent signal detection
(§8) Dose curves in the presence and absence of compound were plotted using GraphPad Prism or Activity Base. For agonist mode assays, percentage activity was calculated using the following formula: % Activity=100%×(Mean RLU of test sample−mean RLU of vehicle control)/(mean MAX RLU control ligand−mean RLU of vehicle control)). For antagonist mode assays, percentage inhibition was calculated using the following formula: % Inhibition=100%×(1−(Mean RLU of test sample−mean RLU of vehicle control)/(mean RLU of EC80 control−mean RLU of vehicle control)).

[5] = biological target: T3, mChemR23 (Mus musculus, UniProt P97468); assay: PathHunter β-Arrestin assay, mouse ChemR23; assay type: cell-based
T3 construct: host or cells: CHO (stated generally for the PathHunter assay)
T3 sequence (P97468 1-371): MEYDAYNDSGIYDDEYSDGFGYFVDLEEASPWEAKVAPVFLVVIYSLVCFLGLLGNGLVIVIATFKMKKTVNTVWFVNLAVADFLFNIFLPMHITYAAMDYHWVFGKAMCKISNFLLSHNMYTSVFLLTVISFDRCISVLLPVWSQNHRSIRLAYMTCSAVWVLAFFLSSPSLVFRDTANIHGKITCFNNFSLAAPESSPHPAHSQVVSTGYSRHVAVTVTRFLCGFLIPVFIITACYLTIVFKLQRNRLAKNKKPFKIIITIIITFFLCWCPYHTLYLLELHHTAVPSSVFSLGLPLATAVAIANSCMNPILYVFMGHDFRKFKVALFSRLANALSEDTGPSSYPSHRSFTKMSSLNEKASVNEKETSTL
Protocol: as §1, §2, §3, §4, §5
For the antagonist assay, agonist dose curves were performed the morning of profiling to determine the EC80 value for the following antagonist testing with compounds. 5 μL of 5× agonist (i.e. chemerin) was added to each well with an equal concentration of vehicle present. EC80 agonist concentration was determined directly from agonist dose curve. For antagonist determination, cells were preincubated with antagonist followed by agonist challenge at the EC80 concentration: 4. 5 μL of 5× compound added to cells and incubated at 37° C. for 30 minutes. 5. […]
as §7, §8

[6] = biological target: T4, GPR1 (Homo sapiens, UniProt P46091); assay: PathHunter β-Arrestin assay, GPR1, agonist and antagonist mode; assay type: cell-based; details: for agonist activity, in words: FIG. 2A/2B
T4 construct: host or cells: CHO
T4 sequence (P46091 1-355): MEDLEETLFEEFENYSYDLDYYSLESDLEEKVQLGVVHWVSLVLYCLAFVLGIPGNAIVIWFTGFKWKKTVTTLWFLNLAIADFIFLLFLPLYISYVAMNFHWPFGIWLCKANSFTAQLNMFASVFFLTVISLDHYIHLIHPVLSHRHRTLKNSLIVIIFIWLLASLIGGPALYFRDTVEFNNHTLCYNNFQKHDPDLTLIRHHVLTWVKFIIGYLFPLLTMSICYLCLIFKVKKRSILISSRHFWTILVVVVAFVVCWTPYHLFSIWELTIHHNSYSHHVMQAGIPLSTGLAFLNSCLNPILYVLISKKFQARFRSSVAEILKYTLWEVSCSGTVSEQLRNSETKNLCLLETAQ
Protocol: as §1, §2, §3, §4, §5, §6, §7, §8

[7] = Example 3, 0.1 pM 0.5 pM and 1 pM tested, FIG. 3

## Stelara: approved systemic mono-clonal antibody for psoriasis, clears IL-23
[1]; post-injection
  time of maximal serum concentrations: 5 days
[1]; within two weeks after a single dose
  improvement in PASI score: 50%

## AGEDPHGYFAPGQFA [mutant C15 polypeptide]
[2]; [7]
  percent inhibition of RANTES expression: unable to inhibit expression
  percent inhibition of TNFα expression: unable to inhibit expression

## C[C@H](N)C(=O)NCC(=O)N[C@@H](CCC(=O)O)C(=O)N[C@@H](CC(=O)O)C(=O)N1CCC[C@H]1C(=O)N[C@@H](Cc1c[nH]cn1)C(=O)N[C@@H](CO)C(=O)N[C@@H](Cc1ccccc1)C(=O)N[C@@H](Cc1ccc(O)cc1)C(=O)N[C@@H](Cc1ccccc1)C(=O)N1CCC[C@H]1C(=O)NCC(=O)N[C@@H](CCC(N)=O)C(=O)N[C@@H](Cc1ccccc1)C(=O)N[C@@H](C)C(=O)N[C@@H](Cc1ccccc1)C(=O)O [C16 (human)] (H-AGEDPHSFYFPGQFAF-OH; N-terminus and C-terminus assumed)
[3]
  IC50: > 10 µM
[4]
  IC50: > 10 µM
[4]; ChemR23, agonist
  Rank Order: 1
[4]; ChemR23, agonist mode
  % Max Activity: 98.6%
[4]; ChemR23, antagonist mode, chemerin at EC80
  % Max Inhibition: 0%
[4]; human ChemR23, FIG. 2A/2B
  agonist activity, in words: exhibited agonist activity
[5]
  IC50: > 10 µM
[6]
  IC50: > 10 µM
[6]; GPR1
  agonist activity, in words: exhibited agonist activity
[6]; GPR1, agonist
  Rank Order: 2
[6]; GPR1, agonist mode
  % Max Activity: 87.9%
[6]; GPR1, antagonist mode, chemerin at EC80
  % Max Inhibition: 0%

## C[C@@H]1C[C@H]2[C@@H]3CCC4=CC(=O)C=C[C@]4(C)[C@@]3(F)[C@@H](O)C[C@]2(C)[C@@]1(O)C(=O)CO [Dexamethasone]
[2]; 1 μM dosage
  inhibition of IL-1β secretion: approximately 30%
  inhibition of RANTES secretion: ~50%
[2]; Homo sapiens, Macrophage, dexamethasone 1 μM, read-out: inhibition of the production of IL-10
  inhibition at 1 µM: ~70%

## hrChemerin: chemerin protein, control agonist of ChemR23 and GPR1
[5]; Arrestin, Agonist, mChemR23, read-out: RC50 (uM), EC50
  EC50: 0.00154 µM
[6]; GPR1
  agonist activity, in words: potent agonist activity
